Here are results for 10 compounds from ChEMBL document CHEMBL1201862, “PubChem BioAssay data set” (2004).

Among the test systems are A549; HCC 2998; HCT-15; HOP-92; M14; MDA-MB-435; MDA-N; MOLT-4; Malme-3M; NCI/ADR-RES; OVCAR-3; OVCAR-4; OVCAR-8; RXF 393; SF-295; SF-539; SK-MEL-28; SK-MEL-5; SN12C; SNB-19.
Assay in all cases: inhibition of tumour cell growth, NCI panel, 48 h

Structures are written as SMILES.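 Where inhibition never reached the appropriate level, the endpoint shown equals the highest concentration tested. Otherwise, values were interpolated linearly from a five-concentration, 48-hour dose response in 96-well plates. The concentration for 50% growth inhibition is given as GI50.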 Calls of active or inactive are those of the source. Rule as the data show it: active = GI50 up to about 1.1 µM and inactive = higher.

For the compound `Cc1cccc2c1NC(=S)[C@@H]1CCCN1C2=O`, the GI50 in the test on A549 was > 100 µM (inactive); in the test with HCC 2998, > 100 µM (inactive); in the test on HCT-15, > 100 µM; with HOP-92, > 100 µM (inactive); in the test with M14, > 100 µM (inactive); with MDA-MB-435, > 100 µM (inactive). For the same compound, the GI50 in the test with MDA-N, in the test on MOLT-4, in the test with Malme-3M, in the test on NCI/ADR-RES, with OVCAR-3 and in the test with OVCAR-4 was > 100 µM (inactive) each time. Also, the GI50 in the test on OVCAR-8, in the test with RXF 393, in the test with SF-295, with SF-539, with SK-MEL-28 and with SK-MEL-5 was > 100 µM (inactive) in each case. Moreover, the GI50 in the test with SN12C and in the test with SNB-19 was > 100 µM (inactive) throughout.
On to `CC(C)[Si](OCC/C=C/C1CCC(=O)C1C(O)C1CCCCC1)(C(C)C)C(C)C` (stereo not drawn), for which the GI50 was 13.8 µM (inactive) in the test on A549; 8.99 µM (inactive) with HCC 2998; 16.3 µM in the test on HCT-15; 11.8 µM (inactive) with HOP-92; 17.2 µM (inactive) in the test with M14; 17.9 µM (inactive) in the test with MDA-MB-435. Moreover, the GI50 was 19.2 µM (inactive) in the test on MDA-N; 12.5 µM (inactive) with MOLT-4; 14.8 µM (inactive) with Malme-3M; 13.9 µM (inactive) with NCI/ADR-RES; 16.5 µM (inactive) in the test on OVCAR-3; 20.1 µM (inactive) in the test on OVCAR-4. For the same compound, the GI50 with OVCAR-8 was 15.2 µM (inactive); in the test with RXF 393, 8.89 µM (inactive); in the test on SF-295 it was 16 µM (inactive); in the test on SF-539 it was 19.8 µM (inactive); with SK-MEL-28 it was 15.1 µM (inactive); in the test with SK-MEL-5 it was 14.3 µM (inactive). Further, the GI50 in the test with SN12C was 18.2 µM (inactive); in the test on SNB-19, 17.7 µM (inactive).
On to `O/N=C1\CC2(N3CCOCC3)CCC1(c1ccccc1)CC2`, for which the GI50 is > 100 µM (inactive) with A549; > 100 µM (inactive) with HCC 2998; > 100 µM in the test with HCT-15; > 100 µM (inactive) in the test on HOP-92; > 100 µM (inactive) in the test with M14; > 100 µM (inactive) in the test on MDA-MB-435. Also, the GI50 with MDA-N, with MOLT-4, with Malme-3M, in the test with NCI/ADR-RES, in the test on OVCAR-3 and in the test on OVCAR-4 was > 100 µM (inactive) each time. Besides, the GI50 in the test on OVCAR-8, in the test on RXF 393, with SF-295, with SF-539, in the test on SK-MEL-28 and in the test with SK-MEL-5 was > 100 µM (inactive) throughout. Moreover, the GI50 in the test with SN12C and in the test on SNB-19 was > 100 µM (inactive) each time.
For `CC(C)(C)OC(=O)NC(Cc1ccc(OCc2ccccc2)cn1)C(N)=O` (stereo not drawn), the GI50 is > 100 µM (inactive) with A549; > 100 µM (inactive) in the test with HCC 2998; 54.7 µM in the test on HCT-15; > 100 µM (inactive) in the test on HOP-92; > 100 µM (inactive) in the test with MDA-MB-435; 68.5 µM (inactive) with MDA-N. Further, the GI50 was > 10 µM (inactive) in the test on MOLT-4; > 100 µM (inactive) in the test with Malme-3M; 89.9 µM (inactive) in the test with NCI/ADR-RES; 94.8 µM (inactive) with OVCAR-3; 45.7 µM (inactive) in the test on OVCAR-4; > 100 µM (inactive) in the test on OVCAR-8. Also, the GI50 in the test with RXF 393 was > 100 µM (inactive); in the test on SF-295 it was > 100 µM (inactive); in the test on SF-539, > 100 µM (inactive); in the test with SK-MEL-28 it was > 100 µM (inactive); in the test on SK-MEL-5, 26 µM (inactive); in the test on SN12C, > 100 µM (inactive). Also, the GI50 with SNB-19 is > 100 µM (inactive).
For the compound `COC(=O)[C@]12CC=C3O[C@@H]4OC5(CCCCC5)O[C@@H]4[C@H]3C1C(=O)C=CC2=O` (stereo partly drawn), the GI50 is 32.1 µM (inactive) with A549; 17.2 µM (inactive) with HCC 2998; 15.6 µM with HCT-15; 18.7 µM (inactive) with HOP-92; 17.4 µM (inactive) in the test on M14; > 10 µM (inactive) in the test on MDA-MB-435. Also, the GI50 is 19.1 µM (inactive) with MDA-N; 7.03 µM (inactive) with MOLT-4; 17.9 µM (inactive) in the test with Malme-3M; 18.1 µM (inactive) with NCI/ADR-RES; 8.81 µM (inactive) with OVCAR-3; 17.1 µM (inactive) in the test on OVCAR-4. In addition, the GI50 in the test on OVCAR-8 is 20.2 µM (inactive); in the test with RXF 393 it was 8.73 µM (inactive); in the test with SF-295, 24.6 µM (inactive); in the test with SF-539, 19.6 µM (inactive); in the test with SK-MEL-28 it was 18.9 µM (inactive); with SK-MEL-5, 18.6 µM (inactive). For the same compound, the figures for the GI50 in the test with SN12C and in the test with SNB-19 were 18.4 µM (inactive) and 38.3 µM (inactive), respectively.
`CC1(C)C2CCC3CC(CCC#N)CCC3C21C#N` (stereo not drawn): the GI50 is > 100 µM (inactive) in the test on A549; > 100 µM (inactive) in the test with HCC 2998; > 100 µM in the test on HCT-15; > 100 µM (inactive) in the test with HOP-92; > 100 µM (inactive) with M14; > 100 µM (inactive) in the test on MDA-MB-435. Also, the GI50 in the test with MDA-N, in the test on MOLT-4, in the test with Malme-3M, in the test with NCI/ADR-RES, in the test with OVCAR-3 and in the test with OVCAR-4 was > 100 µM (inactive) in each case. For the same compound, the GI50 with OVCAR-8, in the test with RXF 393, in the test with SF-295, with SF-539, in the test on SK-MEL-28 and in the test with SK-MEL-5 was > 100 µM (inactive) each time. In addition, the GI50 with SN12C and in the test with SNB-19 was > 100 µM (inactive) in each case.
For the compound `CCOC(=O)c1c(SCCN(CC)CC)n(-c2ccccc2)c(=S)n(-c2ccccc2)c1=O`, the GI50 in the test with A549 is 3.16 µM (inactive); in the test with HCC 2998, 1.73 µM (inactive); with HCT-15, 2.54 µM; in the test on HOP-92, 1.92 µM (inactive); with M14, 1.74 µM (inactive); with MDA-MB-435, 2.23 µM (inactive). Besides, the GI50 was 2.7 µM (inactive) in the test on MDA-N; 1.09 µM (active) in the test with MOLT-4; 1.42 µM (inactive) with Malme-3M; 32.1 µM (inactive) in the test on NCI/ADR-RES; 1.84 µM (inactive) in the test on OVCAR-3; 9.66 µM (inactive) with OVCAR-4. For the same compound, the GI50 with OVCAR-8 is 2.64 µM (inactive); with RXF 393, 1.72 µM (inactive); with SF-295 it was 34.2 µM (inactive); in the test with SF-539 it was 4.48 µM (inactive); in the test with SK-MEL-28 it was 2.62 µM (inactive); in the test on SK-MEL-5 it was 2.61 µM (inactive). For the same compound, the GI50 in the test with SN12C is 1.91 µM (inactive); in the test on SNB-19, 17.9 µM (inactive).
Consider `COc1ccc(OC)c2c(=S)c3ccccc3[nH]c12`, for which the GI50 in the test on A549 is > 100 µM (inactive); with HCC 2998 it was > 100 µM (inactive); in the test with HCT-15, 47.5 µM; in the test with HOP-92 it was > 100 µM (inactive); in the test with M14 it was > 100 µM (inactive); in the test with MDA-MB-435, 71.3 µM (inactive). Moreover, the GI50 is > 100 µM (inactive) with MDA-N; 39.4 µM (inactive) with MOLT-4; 84.9 µM (inactive) with Malme-3M; > 100 µM (inactive) with NCI/ADR-RES; > 100 µM (inactive) in the test on OVCAR-3; > 100 µM (inactive) in the test with OVCAR-4. In addition, the GI50 was > 73.5 µM (inactive) in the test on OVCAR-8; 54.6 µM (inactive) in the test with RXF 393; 92.3 µM (inactive) in the test with SF-295; > 79.1 µM (inactive) with SF-539; > 100 µM (inactive) in the test with SK-MEL-28; 22.2 µM (inactive) in the test with SK-MEL-5. Further, the GI50 in the test on SN12C and in the test on SNB-19 was > 100 µM (inactive) each time.
For the compound `COc1cc(OC)c2c(=O)c(O)c(-c3ccc(OC)c(OC)c3)oc2c1`, the GI50 in the test with A549 was 5.85 µM (inactive); with HCC 2998 it was 4.26 µM (inactive); in the test with HCT-15, 3.08 µM; in the test on HOP-92, 2.99 µM (inactive); in the test with M14 it was 9.4 µM (inactive); in the test on MDA-MB-435, 22.6 µM (inactive). Besides, the GI50 with MDA-N is 47.8 µM (inactive); in the test with MOLT-4, 2.89 µM (inactive); with Malme-3M it was > 28.1 µM (inactive); with NCI/ADR-RES, 2.86 µM (inactive); in the test on OVCAR-3, 3.56 µM (inactive); with OVCAR-4, 0.607 µM (active). In addition, the GI50 in the test on OVCAR-8 is 3.83 µM (inactive); in the test on RXF 393, 8.99 µM (inactive); in the test on SF-295, 5.37 µM (inactive); in the test on SF-539, 16.1 µM (inactive); in the test on SK-MEL-28, > 25.2 µM (inactive); with SK-MEL-5, 5.96 µM (inactive). Also, the GI50 is 6.28 µM (inactive) with SN12C and 10.3 µM (inactive) in the test on SNB-19.
For the compound `CC1(C)C=C(/C=N/Nc2ccccc2)C(C#N)=C(O)C1(C#N)C#N`, the GI50 is > 100 µM (inactive) in the test with A549; > 100 µM (inactive) with HCC 2998; 28.5 µM (inactive) in the test on HOP-92; > 100 µM (inactive) with M14; > 100 µM (inactive) in the test with MDA-MB-435; > 100 µM (inactive) in the test on MDA-N. Moreover, the GI50 in the test on MOLT-4 is 57.7 µM (inactive); in the test on Malme-3M it was > 100 µM (inactive); in the test on NCI/ADR-RES, > 100 µM (inactive); in the test with OVCAR-3 it was > 100 µM (inactive); in the test with OVCAR-4, > 100 µM (inactive); in the test on OVCAR-8 it was > 100 µM (inactive). Also, the GI50 was > 100 µM (inactive) in the test on RXF 393; 90.4 µM (inactive) with SF-295; > 100 µM (inactive) with SF-539; > 100 µM (inactive) in the test on SK-MEL-28; > 100 µM (inactive) in the test on SK-MEL-5; > 100 µM (inactive) in the test with SN12C. In addition, the GI50 in the test with SNB-19 is > 100 µM (inactive).
